Laboratory results as given in patent publication US6861431B2, “Compounds capable of modulating the activity of multidrug transporters and therapeutic use of the same” (The Board of Trustees of the University of Illinois, priority 2001, dated 2005).
Values after ≈ are worked out from the molar mass of the structure shown. “Also recorded” adds a separate entry of the source. Like-named read-outs stand apart in the source and are kept apart here.

Assays:
mouse ConA cells = assay: DMBA sensitivity of mouse cells; type: cell-based
Method: (§1) The effect of the identified compounds on DMBA sensitivity of mouse cells also was tested. It has been reported that ABC type transporters (e.g., P-gp) are involved in the efflux of polycyclic aromatic hydrocarbon carcinogens from cells. The effect of the identified compounds on sensitivity of mouse cells to 7,12-dimethylbenz[a]anthracene (DMBA) was determined. […].

SW1753-A120 cells = assay: Drug sensitivity assay, SW1753-A120 cells (expressing MRP1); type: cell-based; settings: P-gp-negative; for cell sensitivity to vinblastine: MRP1-positive cells SW1753-A120 (FIG. 13)
Method: (§2) To determine transporter specificity of the identified compounds, the compounds were tested on cells differing in the type of multidrug transporter expressed: KB-8-5-11 cells, (expressing P-gp), SW1753-A120 cells (expressing MRP1), and KB-3-1 (expressing neither of the above transporters and highly sensitive to drugs that are P-gp or MRP1 substrates).

P-gp [1] = assay: Rho123 efflux from preloaded ConA cells; type: cell-based, mouse; parameters: increase of efflux of Rho123 from cells preloaded with the dye: dose or concentration left out as unconfirmed
Method: (§3) Drug accumulation and efflux assay. […] For drug efflux assay, cells after drug incubation were washed thoroughly with PBS, incubated in a drug-free media with or without compounds from the chemical library, and harvested at different time points for flow cytometric analysis (18).
The dynamics of reduction of Rho123 fluorescence was monitored by flow cytometry.

ConA cells = assay: Drug sensitivity (growth inhibition) assay, ConA cells; type: cell-based, mouse; settings: for IC50: Mus musculus, murine ConA cells, read-out: 50% growth inhibitory dose of the drug
Method: Drug sensitivity assays. To estimate drug-mediated growth inhibition, 10^3 cells were plated per well of 96-well plates, and incubated with a range of concentrations of drugs added 24 hours after plating. […] After elution by 1% SDS solution, optical density was determined on a Multiscan Ascent reader (Lybsystems, Helsinki, Finland) at 650 nm.

P-gp [2] = biological target: T1, P-gp (Homo sapiens, UniProt P08183); assay: Drug resistance of mouse ConA cells expressing human P-gp (MDR1 cDNA transfection); type: cell-based; parameters: expressed in transfected cells; host or cells: mouse fibroblasts, line ConA, transfected with MDR1 cDNA in LNL6 (Mo-MuLV LTR promoter)
T1 sequence (P08183 whole entry): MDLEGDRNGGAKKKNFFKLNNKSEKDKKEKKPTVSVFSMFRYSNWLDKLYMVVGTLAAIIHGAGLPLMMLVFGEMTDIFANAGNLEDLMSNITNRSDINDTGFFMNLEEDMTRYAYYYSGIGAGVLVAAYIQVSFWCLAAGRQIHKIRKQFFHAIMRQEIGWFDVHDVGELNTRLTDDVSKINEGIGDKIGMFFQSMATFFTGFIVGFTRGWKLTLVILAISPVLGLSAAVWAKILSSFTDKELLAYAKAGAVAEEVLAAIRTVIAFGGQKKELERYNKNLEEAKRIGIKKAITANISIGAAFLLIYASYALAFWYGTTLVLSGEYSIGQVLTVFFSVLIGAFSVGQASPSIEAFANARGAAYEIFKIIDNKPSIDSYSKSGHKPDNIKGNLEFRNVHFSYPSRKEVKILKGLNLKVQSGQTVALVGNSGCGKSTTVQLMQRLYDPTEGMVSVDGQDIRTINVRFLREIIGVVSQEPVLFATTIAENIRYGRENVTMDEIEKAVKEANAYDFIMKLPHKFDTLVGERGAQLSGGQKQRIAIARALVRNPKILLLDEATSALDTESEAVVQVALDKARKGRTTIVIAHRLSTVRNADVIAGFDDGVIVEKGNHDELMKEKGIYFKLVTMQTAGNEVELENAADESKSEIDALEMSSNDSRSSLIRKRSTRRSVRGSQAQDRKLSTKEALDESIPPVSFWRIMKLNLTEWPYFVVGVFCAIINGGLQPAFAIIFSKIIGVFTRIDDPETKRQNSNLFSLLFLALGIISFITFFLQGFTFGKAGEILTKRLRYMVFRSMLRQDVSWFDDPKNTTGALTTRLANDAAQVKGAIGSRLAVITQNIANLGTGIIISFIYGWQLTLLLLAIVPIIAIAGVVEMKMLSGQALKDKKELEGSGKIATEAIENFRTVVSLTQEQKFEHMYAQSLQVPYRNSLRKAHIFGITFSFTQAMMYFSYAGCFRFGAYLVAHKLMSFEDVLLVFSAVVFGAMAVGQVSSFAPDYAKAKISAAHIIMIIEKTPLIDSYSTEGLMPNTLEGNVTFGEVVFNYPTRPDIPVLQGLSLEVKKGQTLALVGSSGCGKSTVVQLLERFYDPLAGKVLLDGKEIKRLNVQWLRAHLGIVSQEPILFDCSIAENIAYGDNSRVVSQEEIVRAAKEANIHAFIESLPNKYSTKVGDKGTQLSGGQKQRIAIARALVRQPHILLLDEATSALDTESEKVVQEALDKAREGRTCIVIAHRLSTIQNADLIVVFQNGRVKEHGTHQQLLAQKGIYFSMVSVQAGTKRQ
Text: These cells are known to overexpress P-gp as result of MDR1 gene amplification. To completely eliminate possibility that some other ABC type transporter expressed in KB-8-5-11 cells might be responsible for this phenomenon, mouse fibroblasts, line ConA, permanently expressing human P-gp as a result of transfection with MDR1 cDNA-expressing plasmid LNL6 were used.

KB-3-1 cells = assay: Drug sensitivity assay, KB-3-1 cells (P-gp-negative); type: cell-based, human
Method: (§4) Drug sensitivity assays. To estimate drug-mediated growth inhibition, 10^3 cells were plated per well of 96-well plates, and incubated with a range of concentrations of drugs added 24 hours after plating. After 5 to […] of drug treatment, plates were fixed and stained using 2% methylene blue solution in 50% methanol. After elution by 1% SDS solution, optical density was determined on a Multiscan Ascent reader (Lybsystems, Helsinki, Finland) at 650 nm.
as §2

P-gp [3] = biological target: T1, P-gp; assay: Rho123 accumulation in KB-8-5-11 cells; type: cell-based; parameters: overexpressing P-gp as a result of MDR1 gene amplification (20); endogenous in cells; host or cells: KB-8-5-11 (multidrug resistant derivative of KB-3-1); settings: KB-8-5-11 cells overexpressing P-gp
Text: (§5) Drug accumulation and efflux assay.
To test the effect of Compound 102 specifically on P-gp, a pair of human cell lines used as conventional models for studying P-gp, i.e., P-gp-negative KB-3-1 and its multidrug resistant derivative KB-8-5-11, overexpressing P-gp as a result of MDR1 gene amplification (20), were used.

P-gp [4] = biological target: T1, P-gp; assay: P-gp-mediated efflux of taxol by KB-8-5-11 cells; type: cell-based; parameters: overexpressing P-gp as a result of MDR1 gene amplification (20); endogenous in cells; host or cells: KB-8-5-11 (multidrug resistant derivative of KB-3-1)
Text: as §5
Consistent with the drug sensitivity data, Compound 102 suppressed P-gp-mediated efflux of taxol by KB-8-5-11 cells, acting as a P-gp inhibitor for this drug (FIGS. 4 and 5). These observations indicate that Compound 102 should be defined as a modulator rather than a general activator of P-gp that acts by changing relative substrate specificity of the transporter.

KB-8-5-11 cells = assay: Drug sensitivity assay, KB-8-5-11 cells (P-gp-positive); type: cell-based, human; settings: for IC50: Homo sapiens, human KB-8-5-11 cells, read-out: 50% growth inhibitory dose of the drug
Method: as §4, §2

[5] = DMBA sensitivity of mouse cells; type: cell-based; settings: mouse fibroblasts, three days, without Compound 102; read-out: IC50 of DMBA cytotoxicity
Method: as §1

P-gp [6] = test system: P-gp
Method: as §4, §3

P-gp [7] = biological target: T1, P-gp
P-gp [8] = biological target: T1, P-gp; remark: listed apart in the source
P-gp [9] = assay: Rho123 accumulation in ConA cells; type: cell-based, mouse; settings: identified compounds present
Method: Screening of a chemical library. Murine fibroblastoid cell line (ConA) was selected as the readout system for screening a chemical library for P-gp activators. […] Rho123, a classic fluorescent P-gp substrate that is detected easily using multichannel fluorimeter in living cells, was used as an efflux indicator. […] Primary screening was performed on ConA cells for compounds that interfere with Adr-induced activation of p53-responsive reporter LacZ gene as previously described (11). To identify P-gp modulators, all “hits” isolated after primary screening were tested for their ability to modulate cellular accumulation of Rho123. Con A cells grown in 96-well plates were incubated 4 hours with 0.5 μM Rho123 in combination with individual library compounds (2 μg/ml (2-5 μM)), and cell fluorescence was analyzed using fluorescent microscopy.
as §3
ConA cells were incubated two hours with Rho123 ([…]) or daunorubicin (500 ng/ml) in the presence of the identified compounds, and accumulation of the drugs was quantitated by flow cytometry.

For `Cc1ccc(-c2cn3c4c(sc3n2)CCCC4)cc1` [Compound 102, 2-p-Tolyl-5,6,7,8-tetrahydro-benzo[d]imidazo[2,1-b]thiazole], the “protection of cells from cytotoxicity of DMBA” value (mouse ConA cells) was “strongly protects”, the “increase of natural level of resistance to DMBA” value (mouse ConA cells; mouse fibroblasts, 10 μM Compound 102) was “greater than 15 fold” and the “cell sensitivity to vinblastine” value (SW1753-A120 cells) was “no effect”. The “cell sensitivity to doxorubicin” value (SW1753-A120 cells; MRP1-positive cells SW1753-A120 (FIG. 16)) was “no effect”, the “increase of efflux of Rho123 from cells preloaded with the dye” value (P-gp [1]; ConA cells loaded with Rho123, Rho123-free medium, with vs without Compound 102 (FIGS. 2 and 3)) was “about 20 times” and the “cell sensitivity to colcemide” value (ConA cells; ConA cells grown 72 hours with drug with or without Compound 102 (FIG. 6)) was “no effect”. For the same compound, the resistance to doxorubicin (P-gp [2]; mouse ConA fibroblasts expressing human P-gp (FIG. 10)) was “increased resistance”, the resistance to vinblastine (P-gp [2]; mouse ConA fibroblasts expressing human P-gp (data not shown)) was “decreased resistance” and the “effect on drug sensitivity” value (KB-3-1 cells; P-gp-negative cell line KB-3-1) was “No effect”. The Rho123 accumulation (P-gp [3]) was “strongly decreased” and the “P-gp-mediated efflux of taxol” value (P-gp [4]) was “suppressed”.
For `Cc1ccccc1Cn1c(=O)sc2ccccc21` [Compound 103], the “cell sensitivity to vinblastine” value (SW1753-A120 cells) was “increases; also recorded: weak sensitizing effect”, the “cell sensitivity to doxorubicin” value (KB-8-5-11 cells; P-gp-positive cells KB-8-5-11 (FIG. 15)) was “increase cell sensitivity” and the “cell sensitivity to vinblastine” value (KB-3-1 cells; P-gp- and MRP1-negative cells KB-3-1 (FIG. 14)) was “weak sensitizing effect”. The “cell sensitivity to doxorubicin” value (KB-3-1 cells; P-gp- and MRP1-negative cells KB-3-1 (FIG. 17)) was “can increase cell resistance”.
For `Cc1c2ccccc2c(C)c2c1ccc1ccccc12` [DMBA, 7,12-dimethylbenz[a]anthracene], the IC50 (mouse ConA cells; Mus musculus, Fibroblast, 72 h, read-out: IC50 of DMBA cytotoxicity) was 5000 nM and the IC50 at 3 days [5] was 310 nM.
In the case of `COc1cccc2c1C(=O)c1c(O)c3c(c(O)c1C2=O)C[C@@](O)(C(=O)CO)C[C@@H]3O[C@H]1C[C@H](N)[C@H](O)[C@H](C)O1` [Doxorubicin, adriamycin], the “cytotoxicity of the drug in the presence of Compound 102” value (P-gp [6]) is reported as “less toxic”, the IC50 (KB-8-5-11 cells; with Compound 102) is reported as 1.2 µg/mL (≈ 2.21 µM) and the IC50 (KB-8-5-11 cells; without Compound 102) is reported as 0.2 µg/mL (≈ 0.368 µM). The “Change in sensitivity (x-fold)” value (ConA cells; ConA cells, Compound 102 (10 μM), fold resistance) was 6 x-fold, the IC50 (ConA cells; with Compound 102) was 0.3 µg/mL (≈ 0.552 µM) and the IC50 (ConA cells; without Compound 102) was 0.05 µg/mL (≈ 0.092 µM). For the same compound, the “Effect of Compound 102 on drug sensitivity of cell lines: ConA (Balb 3T3)” value (ConA cells; P-gp-positive ConA cells, label = drug) was “R”.
For `CC(=O)[C@H]1CC[C@H]2[C@@H]3CCC4=CC(=O)CC[C@]4(C)[C@H]3CC[C@]12C` [progesterone], the “effect on P-gp-mediated Rho123 efflux” value (P-gp [7]) was “weak effect” and the “changes in cell cross resistance to P-gp substrates tested” value (P-gp [8]) was “did not cause detectable changes”.
In the case of `COC(=O)[C@H]1[C@H]2C[C@@H]3c4[nH]c5cc(OC)ccc5c4CCN3C[C@H]2C[C@@H](OC(=O)c2cc(OC)c(OC)c(OC)c2)[C@@H]1OC` [reserpine], the “effect of P-gp inhibitor on Compound 102-stimulated Rho123 efflux” value (P-gp [1]; ConA cells preloaded with Rho123, Compound 102 present) is reported as “completely reverted” and the “effect of P-gp inhibitor on compound-mediated reduction of Adr and Rho123 accumulation” value (P-gp [9]) is reported as “completely reverted”.
